Experiment [1] deals with T1, Protein deacetylase HDAC6 (Homo sapiens, UniProt Q9UBN7).
T1 sequence (Q9UBN7 whole entry): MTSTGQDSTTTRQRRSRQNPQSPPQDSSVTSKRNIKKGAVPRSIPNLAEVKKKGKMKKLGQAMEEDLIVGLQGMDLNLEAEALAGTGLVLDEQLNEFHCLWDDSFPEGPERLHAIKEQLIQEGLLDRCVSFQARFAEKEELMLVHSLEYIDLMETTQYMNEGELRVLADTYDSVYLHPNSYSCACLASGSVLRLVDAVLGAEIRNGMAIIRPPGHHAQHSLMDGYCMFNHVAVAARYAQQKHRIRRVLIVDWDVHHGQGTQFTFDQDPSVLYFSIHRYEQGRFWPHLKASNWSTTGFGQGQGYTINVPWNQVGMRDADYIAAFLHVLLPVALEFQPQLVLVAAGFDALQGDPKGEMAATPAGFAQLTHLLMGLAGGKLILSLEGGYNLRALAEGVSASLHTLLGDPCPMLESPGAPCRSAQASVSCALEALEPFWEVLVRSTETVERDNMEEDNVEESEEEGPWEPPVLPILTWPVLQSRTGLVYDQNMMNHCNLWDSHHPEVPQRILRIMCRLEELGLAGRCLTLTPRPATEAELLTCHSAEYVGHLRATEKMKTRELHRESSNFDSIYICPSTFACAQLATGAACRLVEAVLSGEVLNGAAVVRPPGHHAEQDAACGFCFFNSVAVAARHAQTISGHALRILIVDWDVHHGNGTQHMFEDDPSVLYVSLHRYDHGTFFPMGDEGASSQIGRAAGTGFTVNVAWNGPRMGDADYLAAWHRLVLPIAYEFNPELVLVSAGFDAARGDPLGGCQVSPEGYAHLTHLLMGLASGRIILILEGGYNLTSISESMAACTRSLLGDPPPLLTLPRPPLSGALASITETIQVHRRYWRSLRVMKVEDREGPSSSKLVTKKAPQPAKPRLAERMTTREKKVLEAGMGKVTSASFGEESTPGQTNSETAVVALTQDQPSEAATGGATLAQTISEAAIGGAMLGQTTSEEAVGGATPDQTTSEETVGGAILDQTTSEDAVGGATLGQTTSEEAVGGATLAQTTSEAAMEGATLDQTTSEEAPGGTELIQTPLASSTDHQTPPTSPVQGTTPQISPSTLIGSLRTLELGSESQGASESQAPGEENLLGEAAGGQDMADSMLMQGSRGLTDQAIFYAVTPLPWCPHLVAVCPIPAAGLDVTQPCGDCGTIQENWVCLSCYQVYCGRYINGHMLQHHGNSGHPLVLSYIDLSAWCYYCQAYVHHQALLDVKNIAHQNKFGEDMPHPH
Briefly: Inhibition of human HDAC6 (unknown origin).

In experiment [2] the target is T2, Histone deacetylase 1 (Homo sapiens, UniProt Q13547). Briefly: Inhibition of HDAC1 (unknown origin).
The target in experiment [3] is T1, Protein deacetylase HDAC6. The experiment in a line: Inhibition of HDAC6 (unknown origin) using acetyl-lysine tripeptide as substrate preincubated for 24 hrs followed by substrate addition and measured after 30 mins by microtiter plate reader analysis.
Experiment [4] addresses T2, Histone deacetylase 1. Briefly: Inhibition of C-terminal Flag-tagged HDAC1 (unknown origin) expressed in HEK293 cells or Sf21 cells using Ac-RHK(Ac)K(Ac)-AMC peptide as substrate measured after 180 mins by fluorescence based assay.
The target in experiment [5] is T2, Histone deacetylase 1. Briefly: Inhibition of C-terminal Flag-tagged HDAC1 (unknown origin) expressed in HEK293 cells or Sf21 cells using Ac-NH-GGK(Ac)-AMC peptide as substrate measured after 180 mins by fluorescence based assay.

The values that follow come from ChEMBL document CHEMBL4619704, “Structural determinants of affinity and selectivity in the binding of inhibitors to histone deacetylase 6” (Bioorg Med Chem Lett, 2020).

In general, IC50 refers to the concentration at which inhibition is half-maximal. High values mean a need for much substance, low ones inhibition by little substance.

T2 sequence (Q13547 whole entry): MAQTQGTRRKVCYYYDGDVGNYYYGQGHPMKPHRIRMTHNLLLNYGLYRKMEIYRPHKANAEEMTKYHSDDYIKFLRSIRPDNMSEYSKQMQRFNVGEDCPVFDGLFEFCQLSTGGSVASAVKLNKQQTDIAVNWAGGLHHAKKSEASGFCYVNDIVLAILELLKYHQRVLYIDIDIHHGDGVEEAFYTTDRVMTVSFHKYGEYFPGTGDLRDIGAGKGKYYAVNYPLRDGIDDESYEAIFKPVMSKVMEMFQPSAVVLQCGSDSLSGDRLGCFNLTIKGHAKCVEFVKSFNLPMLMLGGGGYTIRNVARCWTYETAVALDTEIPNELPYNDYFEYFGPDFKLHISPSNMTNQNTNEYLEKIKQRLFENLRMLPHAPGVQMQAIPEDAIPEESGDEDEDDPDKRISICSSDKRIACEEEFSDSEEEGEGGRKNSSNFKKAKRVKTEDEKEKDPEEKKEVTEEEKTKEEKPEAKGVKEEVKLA

With `NCCCNCCCCCC(=O)C(F)(F)F`, inhibition in experiment [1] was half-maximal at 1.4 µM (IC50). `O=C(NO)c1cnc(NC2(c3ccccc3)CCC(F)(F)CC2)nc1`: the 50% inhibitory concentration (IC50) was 0.78 µM in experiment [2] and 0.003 µM in experiment [3]. Regarding `CN(C)Cc1ccc(S(=O)(=O)n2ccc(/C=C/C(=O)NO)c2)cc1` [RESMINOSTAT], the figures for the half-inhibitory concentration (IC50) in experiment [4] and in experiment [5] were 0.877 µM and 0.043 µM, respectively.
